Source: US20230233580A1, “USE OF OXYGENATED CHOLESTEROL SULFATES FOR CANCERS AND NON-CANCEROUS TRANSFORMATIONS RELATED TO EPSTEIN-BARR VIRUS” (priority 2020, published 2023)
“And” between values parts separate entries of the source, which are not always exact repeats. Equal values may be shown once.

Assays:
Huh-7 cells = assay: Whole genome bisulfite sequencing (WGBS), promoter 5mCpG demethylation; type: cell-based, human; conditions: Huh-7, HG 72 h, 25 μM 4 h
Method: Each sample, 2 μg, was sent to EpigenDx, Inc. (Hopkinton, Mass.) for analysis of global methylation bisulfite sequencing. The same samples, 6 μg, were sent to Novogene Co., Ltd (Tianjin, China) for analysis of whole genome bisulfite sequencing (WGBS). Total RNA was isolated using the Promega SV total RNA isolation system (Madison, Wis.) with DNase treatment. Each sample, 2 μg, was used for the first-strand cDNA synthesis as recommended by the manufacturer (Invitrogen, Carlsbad, Calif.). Real-time RT-PCR was performed using SYBR Green as the indicator on ABI 7500 Fast Real-Time PCR System (Applied Biosystems, Foster City, Calif.). Amplifications of j-actin or GAPDH were used as internal controls. Relative messenger RNA (mRNA) expression was quantified with the comparative cycle threshold (Ct) method using the primer set shown in Table 1.1 and was expressed as 2^−ΔΔct.
Each sample, 5.2 μg of genomic DNA spiked with 26 ng lambda DNA, was fragmented by sonication to 200-300 bp with Covaris S220, followed by end repair and adenylation. Cytosine-methylated barcodes were ligated to sonicated DNA per the manufacturer's instructions. These DNA fragments were treated twice with bisulfite using EZ DNA Methylation-Gold™ Kit™ (Zymo Research) before the resulting single-strand DNA fragments were PCR amplified using KAPA HiFi Hot Start Uracil and Ready Mix (2×). Library concentration was quantified by Qubit® 2.0 Flurometer (Life Technologies, CA, USA) and quantitative PCR, and the insert size was assayed on an Agilent Bioanalyzer 2100 system.
The library preparations were sequenced on an Illumina Hiseq 2500/4000 or Novaseq™ platform and 125 bp/150 bp paired-end reads were generated. Image analysis and base calling were performed with Illumina CASAVA pipeline. Trimmomatic (Trimmomatic-0.36) software was used for quality control. Bismark software (version 0.16.3; Krueger F, 2011) was used to perform alignments of bisulfite-treated reads to a reference genome (−X 700-dovetail). DSS software (23) was used to identify differentially methylated regions (DMRs). KOBAS software was used to test the statistical enrichment of DMR related genes in the Kyoto Encyclopedia of Genes and Genomes (KEGG) pathways.
Each sample (6 μg) was used for analysis of the whole genome bisulfite sequencing (WGBS).

[1] = Metabolite profiling of plasma, urine, feces, intravenous dose; type: in vivo, rats; conditions: intravenous 10 mg/kg
Method: Plasma pools were made from Group 1 rats at the 0.083, 0.25, 0.5, and 1-hour collection time points.
Urine pools were prepared for Group 2 at 0 to 6 and 6 to 12 hours post-dose.
Feces pools were prepared for Group 2 at 0 to 12, 12 to 24, and 24 to 48 hours post-dose.

SMILES: C[C@H](CCCC(C)(C)O)[C@H]1CC[C@H]2[C@@H]3CC=C4C[C@@H](OS(=O)(=O)O)CC[C@]4(C)[C@H]3CC[C@]12C [25HC3S, 5-Cholesten-3β, 25-diol 3-sulfate]
- DMR (Methylation %) 25HC3S-Vehicle, DRD5P2 promoter (Huh-7 cells; Chr1 1.43E+08): −34.73%
- DMR (Methylation %) 25HC3S-Vehicle, ITPKB promoter (Huh-7 cells; Chr1 2.27E+08): −25.12%
- DMR (Methylation %) 25HC3S-Vehicle, MAP4K4 promoter (Huh-7 cells; Chr2 1.02E+08): −13.63%
- DMR (Methylation %) 25HC3S-Vehicle, ROCK2 promoter (Huh-7 cells; Chr2 11344628-11344733): −23.14%
- DMR (Methylation %) 25HC3S-Vehicle, PPP1CB promoter (Huh-7 cells; Chr2 28751716-28751798): −10.93%
- DMR (Methylation %) 25HC3S-Vehicle, ADCY5 promoter (Huh-7 cells; Chr3 1.23E+08): −30.44%
- DMR (Methylation %) 25HC3S-Vehicle, HRH1 promoter (Huh-7 cells; Chr3 11154292-11154354): −25.48%
- DMR (Methylation %) 25HC3S-Vehicle, PLCD1 promoter (Huh-7 cells; Chr3 38029863-38030016): −24.31%
- DMR (Methylation %) 25HC3S-Vehicle, DUSP7 promoter (Huh-7 cells; Chr3 52056416-52056485): −40.47%
- DMR (Methylation %) 25HC3S-Vehicle, CACNA1D promoter (Huh-7 cells; Chr3 53494583-53494705): −20.46%
- DMR (Methylation %) 25HC3S-Vehicle, RAPGEF2 promoter (Huh-7 cells; Chr4 1.59E+08): −36.05%
- DMR (Methylation %) 25HC3S-Vehicle, PDE4D promoter (Huh-7 cells; Chr5 59893498-59893718): −27.84%
- DMR (Methylation %) 25HC3S-Vehicle, AFDN promoter (Huh-7 cells; Chr6 1.68E+08): −30.68%
- DMR (Methylation %) 25HC3S-Vehicle, AL671762.1 promoter (Huh-7 cells; Chr6 31828019-31828149): −27.17%
- DMR (Methylation %) 25HC3S-Vehicle, CREB5 promoter (Huh-7 cells; Chr7 28489448-28489601): −29.31%
- DMR (Methylation %) 25HC3S-Vehicle, GLI3 promoter (Huh-7 cells; Chr7 42228171-42228223): −19.62%
- DMR (Methylation %) 25HC3S-Vehicle, ADCY1 promoter (Huh-7 cells; Chr7 45574500-45574591): −14.76%
- DMR (Methylation %) 25HC3S-Vehicle, VAV2 promoter (Huh-7 cells; Chr9 1.34E+08): −33.11%
- DMR (Methylation %) 25HC3S-Vehicle, GNAQ promoter (Huh-7 cells; Chr9 78032198-78032440): −11.92%
- DMR (Methylation %) 25HC3S-Vehicle, PTCH1 promoter (Huh-7 cells; Chr9 95508446-95508561): −12.09%
- DMR (Methylation %) 25HC3S-Vehicle, GABBR2 promoter (Huh-7 cells; Chr9 98708549-98708610): −21.84%
- DMR (Methylation %) 25HC3S-Vehicle, ADRB1 promoter (Huh-7 cells; Chr10 1.14E+08): −33.1%
- DMR (Methylation %) 25HC3S-Vehicle, CACNB2 promoter (Huh-7 cells; Chr10 18140401-18140547): −21.91%
- DMR (Methylation %) 25HC3S-Vehicle, MAPK8 promoter (Huh-7 cells; Chr10 48306510-48306561): −29.24%
- DMR (Methylation %) 25HC3S-Vehicle, HRAS promoter (Huh-7 cells; Chr11 535071-535127): −18.85%
- DMR (Methylation %) 25HC3S-Vehicle, DUSP8 promoter (Huh-7 cells; Chr11 1572973-1573032): −30.51%
- DMR (Methylation %) 25HC3S-Vehicle, BAD promoter (Huh-7 cells; Chr11 64286088-64286179): −42.33%
- DMR (Methylation %) 25HC3S-Vehicle, RELA promoter (Huh-7 cells; Chr11 65661914-65662035): −35.1%
- DMR (Methylation %) 25HC3S-Vehicle, CACNA1C-AS1 promoter (Huh-7 cells; Chr12 2691335-2691438): −20.97%
- DMR (Methylation %) 25HC3S-Vehicle, NTF3 promoter (Huh-7 cells; Chr12 5432796-5432882): −33.48%
- DMR (Methylation %) 25HC3S-Vehicle, EDNRB promoter (Huh-7 cells; Chr13 77919496-77919743): −34.09%
- DMR (Methylation %) 25HC3S-Vehicle, ABCC4 promoter (Huh-7 cells; Chr13 95301634-95301736): −33.06%
- DMR (Methylation %) 25HC3S-Vehicle, ADCY4 promoter (Huh-7 cells; Chr14 24334570-24334719): −18.63%
- DMR (Methylation %) 25HC3S-Vehicle, MAX promoter (Huh-7 cells; Chr14 65102273-65102358): −31.75%
- DMR (Methylation %) 25HC3S-Vehicle, SLC8A3 promoter (Huh-7 cells; Chr14 70188747-70189089): −28.51%
- DMR (Methylation %) 25HC3S-Vehicle, TGFB3 promoter (Huh-7 cells; Chr14 75982395-75982557): −23.74%
- DMR (Methylation %) 25HC3S-Vehicle, CACNA1H promoter (Huh-7 cells; Chr16 1194928-1195015): −26.48%
- DMR (Methylation %) 25HC3S-Vehicle, GRIN2A promoter (Huh-7 cells; Chr16 10183302-10183414): −19.63%
- DMR (Methylation %) 25HC3S-Vehicle, GRIN2C promoter (Huh-7 cells; Chr17 74861739-74861853): −37.6% and −37.64%
- DMR (Methylation %) 25HC3S-Vehicle, SPHK1 promoter (Huh-7 cells; Chr17 76383180-76383291): −24.74%
- DMR (Methylation %) 25HC3S-Vehicle, GRIN3B promoter (Huh-7 cells; Chr19 1000331-1000405): −34.67%
- DMR (Methylation %) 25HC3S-Vehicle, GADD45B promoter (Huh-7 cells; Chr19 2474806-2474873): −28.6%
- DMR (Methylation %) 25HC3S-Vehicle, GNA11 promoter (Huh-7 cells; Chr19 3094383-3094442): −32.66%
- DMR (Methylation %) 25HC3S-Vehicle, AC005264.2 promoter (Huh-7 cells; Chr19 3156392-3156457): −15.76%
- DMR (Methylation %) 25HC3S-Vehicle, CACNA1A promoter (Huh-7 cells; Chr19 13226635-13226711): −39.91%
- DMR (Methylation %) 25HC3S-Vehicle, CTB-186G2.1 promoter (Huh-7 cells; Chr19 38596260-38596495): −34.3%
- DMR (Methylation %) 25HC3S-Vehicle, MAP4K1 promoter (Huh-7 cells; Chr19 38596260-38596495): −34.3%
- DMR (Methylation %) 25HC3S-Vehicle, ATP1A3 promoter (Huh-7 cells; Chr19 41999134-41999316): −15.75%
- DMR (Methylation %) 25HC3S-Vehicle, GIPR promoter (Huh-7 cells; Chr19 45668710-45668767): −10.04%
- DMR (Methylation %) 25HC3S-Vehicle, CACNG8 promoter (Huh-7 cells; Chr19 53961377-53961479): −31.18%
- DMR (Methylation %) 25HC3S-Vehicle, GNAS promoter (Huh-7 cells; Chr20 58888598-58888893): −25.68%
- DMR (Methylation %) 25HC3S-Vehicle, MAPK1 promoter (Huh-7 cells; Chr22 21867450-21867512): −7.66%
- DMR (Methylation %) 25HC3S-Vehicle, PDGFB promoter (Huh-7 cells; Chr22 39243967-39244084): −30.51%
- amount in feces, % of dose ([1]; 0 to 48 hours post-dose pools): 2 % of dose
- share of the exposure (AUC) to 25HC3S related radioactivity, plasma ([1]; up to 1 hour post-dose): approximately 54%
